From patent US9802897B2, “Amidopyridinol derivative or pharmaceutically acceptable salt thereof and pharmaceutical composition comprising same as active component” (Research Cooperation Foundation of Yeungnam University, priority 2013, dated 2017)
Marks after values point to notes of the source that are not given here.

Key:
[1] = tested on: VEGF-induced angiogenesis in chicken chorioallantoic membrane (CAM); assay: CAM analysis of VEGF-induced angiogenesis; format: in vivo; conditions: VEGF (20 ng/CAM) + Compound (0.01 nmol/CAM), number of blood vessels after 3 days; for inhibition in vivo at 0.01 nmol/CAM: Gallus gallus, 72 h, read-out: Inhibitory rates (%)
Procedure: To confirm inhibitory effects on angiogenesis through in vivo experiments, the chorioallantoic membrane (CAM) analysis was carried out (refer to Nguyen M et al., Microvascular Res., 47, pp 31-40, 1994). A fertilized egg of a chicken was cultured in conditions maintaining a temperature of 37° C. and relative humidity of 55%. On the 10th day of the culturing, a first small hole was made on an air sac part using a hypodermic needle (Green Cross Medical Corp., Korea), and then, a second hole was made on a flat part of the fertilized egg to make a window thereon. Air was removed through the first hole, i.e., the air sac part, and accordingly, the CAM was separated from the shell of the fertilized egg. Then, a grinding wheel (Multipro 395JA, Dremel, Mexico) was used to cut the air sac part, thereby making a window thereon. Next, the whatman filter disk #1 (Whatman Company, USA) was treated with 3 mg/mL of cortisone acetate, dried, and then, wet by VEGF at a concentration of 20 ng/CAM. The filter disk was placed on blood vessels through the window, and then, compounds prepared according to Examples above were each dissolved in DMSO, diluted with PBS, and then, treated for each concentration. After 3 days of treating the compounds, the CAM part on which the filter disk was placed was isolated, and then, washed with PBS. The Stemi SV6 stereomicroscope (Carl Zeiss, Germany) and the Image-Pro Plus software (Media Cybernetics; Silver Spring, Md., USA) were used to capture images of the CAM part, so as to measure the number of the blood vessels and to analyze data obtained therefrom.

A549 lung cancer cells = assay: CAM inoculated with A549 lung cancer cells: angiogenesis and tumor growth; format: in vivo, chicken; conditions: A549 on CAM, 5 days
Procedure: To confirm inhibitory effects on angiogenesis through in vivo experiments, the CAM analysis was carried out (refer to Nguyen M et al., Microvascular Res., 47, pp 31-40, 1994). A fertilized egg of a chicken was cultured in conditions maintaining a temperature of 37° C. and relative humidity of 55%. On the 9th day of the culturing, a first small hole was made on an air sac part using a hypodermic needle (Green Cross Medical Corp., Korea), and then, a second hole was made on a flat part of the fertilized egg to make a window thereon. Air was removed through the first hole, i.e., the air sac part, and accordingly, the CAM was separated from the shell of the fertilized egg. Then, a grinding wheel (Multipro 395JA, Dremel, Mexico) was used to cut the air sac part, thereby making a window thereon. Meanwhile, A549 lung cancer cells were mixed with matrigel at a ratio of 1:1, and then, the mixture was treated with Compounds 8a, 8b, and 8g, respectively, followed by being inoculated at a density of 1.5×10^6 cells/CAM.
After 5 days of the inoculation, the CAM part on which tumors were formed was isolated, and then, washed with PBS. The Stemi SV6 stereomicroscope (Carl Zeiss, Germany) and the Image-Pro Plus software (Media Cybernetics; Silver Spring, Md., USA) were used to capture images of the CAM part, so as to measure the number of the blood vessels and to analyze data obtained therefrom.

HT-29 cells / U937 cells = assay: TNF-α-induced adhesion of HT-29 intestinal epithelial cells and U937 mononuclear cells; format: cell-based, human; conditions: 1 μM, pre-treated 1 hour, TNF-α 10 ng/ml; for inhibition at 1 µM: Homo sapiens, read-out: Inhibitory rates (%)
Procedure: HT-29 cells were cultured in a 24-well plate at a concentration of […] cells/cm^2, and meanwhile, amidopyridinol compounds 8a to 8z were pre-treated for 1 hour at each concentration in a serum-free medium supplemented only with 1% PS. Next, 10 ng/ml of TNF-α was treated therewith to allow a reaction at a temperature of 37° C. for 3 hours. After the completion of the reaction, the medium of the HT-29 cells was removed, and then, the HT-29 cells were washed with PBS once. Afterwards, U937 cells, which were treated and reacted with 10 μg/mL of BCECF-AM at a temperature of 37° C. for 30 minutes, were allowed to react with the HT-29 cells at temperature of 37° C. for 1 hour. Then, to remove U937 cells that were not adhered to the HT-29 cells, the reacted cells were washed with PBS twice. In terms of cell dissolution, 0.1% Triton X-100 in 0.1M Tris was allowed to react with the cells for 30 minutes at room temperature, and then, the cells were subjected to quantify by measuring fluorescence thereof using the Fluostar optima microplate reader (BMG Labtechnologies, Germany).

SMILES | inhibition in vivo at 0.01 nmol/CAM [1] | inhibition at 1 µM (HT-29 cells / U937 cells) | further results
CN(C)c1ccc(/C=C2\C(=O)Nc3ccccc32)cc1 [SU4312, reference compound] | – | – | Inhibitory rates (%) [1]: 74.6 ± 8.5 %; Inhibition rates of angiogenesis (%) (A549 lung cancer cells; 0.01 pmol/CAM): 20.8 ± 1.4 %; Inhibition rates of tumor growth (%) (A549 lung cancer cells; 0.01 pmol/CAM): 16.2 ± 20.4%; Inhibition rates of angiogenesis (%) (A549 lung cancer cells; 0.1 pmol/CAM): 25.1 ± 2.8 %; Inhibition rates of tumor growth (%) (A549 lung cancer cells; 0.1 pmol/CAM): 23.4 ± 9.3%; Inhibition rates of angiogenesis (%) (A549 lung cancer cells; 1.0 pmol/CAM): 36.2 ± 1.9 %; Inhibition rates of tumor growth (%) (A549 lung cancer cells; 1.0 pmol/CAM): 26.8 ± 4.9%
Cc1nc(NC(=O)c2ccccc2)c(C)c(C)c1O [Compound 8k, N-(5-hydroxy-3,4,6-trimethylpyridine-2-yl)benzamide] | 77.3 ± 13.1% | 18.5% | –
COc1ccc(C(=O)Nc2nc(C)c(O)c(C)c2C)cc1 [Compound 8m, N-(5-hydroxy-3,4,6-trimethylpyridine-2-yl)-4-methoxybenzamide] | 69.7 ± 4.5% | 13.9% | –
Cc1nc(NC(=O)c2ccc3c(c2)OCO3)c(C)c(C)c1O [Compound 8o, N-(5-hydroxy-3,4,6-trimethylpyridine-2-yl)benzo[d][1,3]dioxol-5-carboxamide] | 64.8 ± 17.4% | 40.2% | –
Cc1nc(NC(=O)Cc2ccccc2)c(C)c(C)c1O [Compound 8i, N-(5-hydroxy-3,4,6-trimethylpyridine-2-yl)-2-penylacetamide] | – | – | Inhibitory rates (%) [1]: 69.6 ± 11.0 %; Inhibitory rates (%) (HT-29 cells / U937 cells): 56.6* %
Cc1nc(NC(=O)C2CCCCC2)c(C)c(C)c1O [Compound 8h, N-(5-hydroxy-3,4,6-trimethylpyridine-2-yl)cyclohexane carboxamide] | 76.3 ± 7.2% | 64.5% | –
Cc1nc(NC(=O)CC(C)C)c(C)c(C)c1O [Compound 8e, N-(5-hydroxy-3,4,6-trimethylpyridine-2-yl)-3-methylbutanamide] | 75.6 ± 8.9% | 64.2% | –
